# Experimental data published in article PMC11672637, “7-O-Carboxylic Acid-Substituted 3-O-Alkyl Difluoroquercetin; An Aztreonam-Potentiating Agent Against Carbapenemase-Producing Pseudomonas aeruginosa Through Simultaneous Inhibition of Metallo-β-Lactamase and Efflux Pump” (Antibiotics, 2024).
# Assays:
# Assay in all cases: Time–kill assay
# Type in all cases: cell-based, P. aeruginosa
# Conditions in all cases: for Log CFU/mL, ATM + 5: 24 h
# PA-002, blaIMP = test system: PA-002, blaIMP
# Description: (§1) Aliquots (50 μL) were taken from the incubation mixture at regular time intervals (t = 0, 3, 6, and 24 h), serially diluted in 0.85% NaCl solution, and plated on BAP. Bacterial colonies were counted, and the data are presented as the means of at least three independent experiments.
# PA-003, blaVIM = test system: PA-003, blaVIM
# Description: as §1
# PA-014, blaGES = test system: PA-014, blaGES
# Description: as §1
# PA-017, blaNDM = test system: PA-017, blaNDM
# Description: as §1
smiles,measurement,setting,value
"CC(C)(C)CCOc1c(-c2ccc(F)c(F)c2)oc2cc(OCC(=O)O)cc(O)c2c1=O [Compound 5, 2-((2-(3,4-Difluorophenyl)-3-(3,3-dimethylbutoxy)-5-hydroxy-4-oxo-4H-chromen-7-yl)oxy)acetic Acid]","Log CFU/mL, ATM + 5","PA-002, blaIMP; ATM 1/2 MIC + 5 at 8 mg/L",6.66 Log CFU/mL
same,"Diff. (ATM + 5, 24 h vs initial inoculum)","PA-002, blaIMP; ATM 1/4 MIC + 5 at 8 mg/L",2.26 Log CFU/mL
same,Diff. (ATM + 5 vs ATM only),"PA-002, blaIMP; ATM 1/4 MIC + 5 at 8 mg/L",−1.77 Log CFU/mL
same,"Log CFU/mL, ATM + 5","PA-002, blaIMP; ATM 1/4 MIC + 5 at 8 mg/L",7.71 Log CFU/mL
same,"Diff. (ATM + 5, 24 h vs initial inoculum)","PA-002, blaIMP; ATM 1 MIC + 5 at 8 mg/L",−2.42 Log CFU/mL
same,Diff. (ATM + 5 vs ATM only),"PA-002, blaIMP; ATM 1 MIC + 5 at 8 mg/L",−5.12 Log CFU/mL
same,"Synergistic activity, interpretation","PA-002, blaIMP; ATM 1 MIC + 5 at 8 mg/L",Synergy (a ≥ 2 log10 decrease in CFU/mL for the combination of ATM and 5 compared to ATM alone after 24 h of incubation)
same,"Log CFU/mL, ATM + 5","PA-002, blaIMP; ATM 1 MIC + 5 at 8 mg/L",3.03 Log CFU/mL
same,"Diff. (ATM + 5, 24 h vs initial inoculum)","PA-002, blaIMP; ATM 2 MIC + 5 at 8 mg/L",−5.45 Log CFU/mL
same,Diff. (ATM + 5 vs ATM only),"PA-002, blaIMP; ATM 2 MIC + 5 at 8 mg/L",−5.5 Log CFU/mL
same,"Synergistic activity, interpretation","PA-002, blaIMP; ATM 2 MIC + 5 at 8 mg/L",Synergy (a ≥ 2 log10 decrease in CFU/mL for the combination of ATM and 5 compared to ATM alone after 24 h of incubation)
same,"Log CFU/mL, ATM + 5","PA-002, blaIMP; ATM 2 MIC + 5 at 8 mg/L",0.00 Log CFU/mL
same,"Diff. (ATM + 5, 24 h vs initial inoculum)","PA-003, blaVIM; ATM 1/2 MIC + 5 at 8 mg/L",4.11 Log CFU/mL
same,Diff. (ATM + 5 vs ATM only),"PA-003, blaVIM; ATM 1/2 MIC + 5 at 8 mg/L",−0.04 Log CFU/mL
same,"Log CFU/mL, ATM + 5","PA-003, blaVIM; ATM 1/2 MIC + 5 at 8 mg/L",9.84 Log CFU/mL
same,"Diff. (ATM + 5, 24 h vs initial inoculum)","PA-003, blaVIM; ATM 1/4 MIC + 5 at 8 mg/L",4.35 Log CFU/mL
same,Diff. (ATM + 5 vs ATM only),"PA-003, blaVIM; ATM 1/4 MIC + 5 at 8 mg/L",−0.1 Log CFU/mL
same,"Log CFU/mL, ATM + 5","PA-003, blaVIM; ATM 1/4 MIC + 5 at 8 mg/L",10.08 Log CFU/mL
same,"Diff. (ATM + 5, 24 h vs initial inoculum)","PA-003, blaVIM; ATM 1 MIC + 5 at 8 mg/L",−5.5 Log CFU/mL
same,Diff. (ATM + 5 vs ATM only),"PA-003, blaVIM; ATM 1 MIC + 5 at 8 mg/L",−8.9 Log CFU/mL
same,"Synergistic activity, interpretation","PA-003, blaVIM; ATM 1 MIC + 5 at 8 mg/L",Synergy (a ≥ 2 log10 decrease in CFU/mL for the combination of ATM and 5 compared to ATM alone after 24 h of incubation)
same,"Log CFU/mL, ATM + 5","PA-003, blaVIM; ATM 1 MIC + 5 at 8 mg/L",0.23 Log CFU/mL
same,"Diff. (ATM + 5, 24 h vs initial inoculum)","PA-003, blaVIM; ATM 2 MIC + 5 at 8 mg/L",−5.73 Log CFU/mL
same,Diff. (ATM + 5 vs ATM only),"PA-003, blaVIM; ATM 2 MIC + 5 at 8 mg/L",−6.4 Log CFU/mL
same,"Synergistic activity, interpretation","PA-003, blaVIM; ATM 2 MIC + 5 at 8 mg/L",Synergy (a ≥ 2 log10 decrease in CFU/mL for the combination of ATM and 5 compared to ATM alone after 24 h of incubation)
same,"Log CFU/mL, ATM + 5","PA-003, blaVIM; ATM 2 MIC + 5 at 8 mg/L",0.00 Log CFU/mL
same,"Diff. (ATM + 5, 24 h vs initial inoculum)","PA-014, blaGES; ATM 1/2 MIC + 5 at 8 mg/L",1.65 Log CFU/mL
same,Diff. (ATM + 5 vs ATM only),"PA-014, blaGES; ATM 1/2 MIC + 5 at 8 mg/L",−2.23 Log CFU/mL
same,"Synergistic activity, interpretation","PA-014, blaGES; ATM 1/2 MIC + 5 at 8 mg/L",Synergy (a ≥ 2 log10 decrease in CFU/mL for the combination of ATM and 5 compared to ATM alone after 24 h of incubation)
same,"Log CFU/mL, ATM + 5","PA-014, blaGES; ATM 1/2 MIC + 5 at 8 mg/L",6.60 Log CFU/mL
same,"Diff. (ATM + 5, 24 h vs initial inoculum)","PA-014, blaGES; ATM 1/4 MIC + 5 at 8 mg/L",3.88 Log CFU/mL
same,Diff. (ATM + 5 vs ATM only),"PA-014, blaGES; ATM 1/4 MIC + 5 at 8 mg/L",−0.5 Log CFU/mL
same,"Log CFU/mL, ATM + 5","PA-014, blaGES; ATM 1/4 MIC + 5 at 8 mg/L",8.83 Log CFU/mL
same,"Diff. (ATM + 5, 24 h vs initial inoculum)","PA-014, blaGES; ATM 1 MIC + 5 at 8 mg/L",−2.32 Log CFU/mL
same,Diff. (ATM + 5 vs ATM only),"PA-014, blaGES; ATM 1 MIC + 5 at 8 mg/L",−5.05 Log CFU/mL
same,"Synergistic activity, interpretation","PA-014, blaGES; ATM 1 MIC + 5 at 8 mg/L",Synergy (a ≥ 2 log10 decrease in CFU/mL for the combination of ATM and 5 compared to ATM alone after 24 h of incubation)
same,"Log CFU/mL, ATM + 5","PA-014, blaGES; ATM 1 MIC + 5 at 8 mg/L",2.63 Log CFU/mL
same,"Diff. (ATM + 5, 24 h vs initial inoculum)","PA-014, blaGES; ATM 2 MIC + 5 at 8 mg/L",−4.8 Log CFU/mL
same,Diff. (ATM + 5 vs ATM only),"PA-014, blaGES; ATM 2 MIC + 5 at 8 mg/L",−2.3 Log CFU/mL
same,"Synergistic activity, interpretation","PA-014, blaGES; ATM 2 MIC + 5 at 8 mg/L",Synergy (a ≥ 2 log10 decrease in CFU/mL for the combination of ATM and 5 compared to ATM alone after 24 h of incubation)
same,"Log CFU/mL, ATM + 5","PA-014, blaGES; ATM 2 MIC + 5 at 8 mg/L",0.15 Log CFU/mL
same,"Diff. (ATM + 5, 24 h vs initial inoculum)","PA-017, blaNDM; ATM 1/2 MIC + 5 at 8 mg/L",1.52 Log CFU/mL
same,Diff. (ATM + 5 vs ATM only),"PA-017, blaNDM; ATM 1/2 MIC + 5 at 8 mg/L",−3.45 Log CFU/mL
same,"Synergistic activity, interpretation","PA-017, blaNDM; ATM 1/2 MIC + 5 at 8 mg/L",Synergy (a ≥ 2 log10 decrease in CFU/mL for the combination of ATM and 5 compared to ATM alone after 24 h of incubation)
same,"Log CFU/mL, ATM + 5","PA-017, blaNDM; ATM 1/2 MIC + 5 at 8 mg/L",6.52 Log CFU/mL
same,"Diff. (ATM + 5, 24 h vs initial inoculum)","PA-017, blaNDM; ATM 1/4 MIC + 5 at 8 mg/L",4.97 Log CFU/mL
same,Diff. (ATM + 5 vs ATM only),"PA-017, blaNDM; ATM 1/4 MIC + 5 at 8 mg/L",−0.77 Log CFU/mL
same,"Log CFU/mL, ATM + 5","PA-017, blaNDM; ATM 1/4 MIC + 5 at 8 mg/L",9.97 Log CFU/mL
same,"Diff. (ATM + 5, 24 h vs initial inoculum)","PA-017, blaNDM; ATM 1 MIC + 5 at 8 mg/L",−4.75 Log CFU/mL
same,Diff. (ATM + 5 vs ATM only),"PA-017, blaNDM; ATM 1 MIC + 5 at 8 mg/L",−6.27 Log CFU/mL
same,"Synergistic activity, interpretation","PA-017, blaNDM; ATM 1 MIC + 5 at 8 mg/L",Synergy (a ≥ 2 log10 decrease in CFU/mL for the combination of ATM and 5 compared to ATM alone after 24 h of incubation)
same,"Log CFU/mL, ATM + 5","PA-017, blaNDM; ATM 1 MIC + 5 at 8 mg/L",0.25 Log CFU/mL
same,"Diff. (ATM + 5, 24 h vs initial inoculum)","PA-017, blaNDM; ATM 2 MIC + 5 at 8 mg/L",−5.00 Log CFU/mL
same,Diff. (ATM + 5 vs ATM only),"PA-017, blaNDM; ATM 2 MIC + 5 at 8 mg/L",−0.12 Log CFU/mL
same,"Log CFU/mL, ATM + 5","PA-017, blaNDM; ATM 2 MIC + 5 at 8 mg/L",0.00 Log CFU/mL
